Measured values as given in patent US20250367187A1, “QUINOLINE DERIVATIVE USED FOR TREATING SMALL CELL LUNG CANCER” (CHIA TAI TIANQING PHARMACEUTICAL GROUP CO., LTD., priority 2018, published 2025).
Counter-ions that a name gives are not always drawn.

Tests used:
[1] = test system: patients with relapsed small cell lung cancer; test: Multicenter, randomized, double-blind, placebo-controlled phase II clinical study; format: in vivo, human
Description: A multicenter, randomized, double-blind and placebo-controlled phase II clinical study was conducted for patients with relapsed small cell lung cancer characterized by presence of measurable lesions and prior standard treatment. In this study; 120 patients were enrolled and randomized to receive oral administration of 1 capsule of the dihydrochloride of the compound of formula I at 12 mg/0 mg once daily. The oral administration was continued for 2 weeks and interrupted for 1 week, i.e., 1 treatment cycle took 3 weeks (21 days). These patients aged 18-75 were treated with the capsule of the dihydrochloride of the compound of formula I and placebo control, and patients who had previously used other targeted drugs (such as sunitinib, bevacizumab, and endostar) and immunotargeted drugs were excluded. In the case of progressive disease (PD) determined by the response evaluation criteria or judged clinically; treatment with other anti-tumor drugs (such as chemotherapy; targeted therapy or biological agent therapy) influencing the judgment of efficacy; unexpected pregnancy; death and the like, the administration was interrupted (terminated) for a subject. For patients with disease under control (CR+PR+SD) and tolerable adverse reactions, the administration was continued. For patients who were unsuitable for continued administration judged by the investigator or were evaluated as PD according to RECIST 1.1 criteria, the administration was terminated. During the administration, depending on the drug-related toxicity degree and the possible efficacy benefit of a patient, the investigator determined whether to adjust the dosage, and the adjustable dosage was 8 mg/0 mg or 10 mg/0 mg. The primary efficacy endpoint was progression-free survival (PFS), and the secondary efficacy endpoints were overall survival (OS), objective response rate (ORR) (CR+PR), disease control rate (DCR) (CR+PR+SD), quality of life score and safety: The objective efficacy endpoint was evaluated according to the response evaluation criteria in solid tumor (RECIST 1.1). All statistical analyses were conducted using the SAS 9.2 statistical analysis software programming. All statistical tests were conducted using bilateral test. When P value≤0.05, the tested difference was considered statistically significant, with the confidence interval being 95% confidence. For the primary efficacy endpoint PFS, 50% (median) PFS and PFS at different time points after the start of the treatment were calculated by using the product limit method according to the data situation, and the two groups were compared using Log-Rank test. For OS, 50% (median) OS was calculated by using the product limit method according to the data situation, and the two groups were compared using Log-Rank test. The full analysis set (FAS) was used for the statistical dataset.

[2] = test system: small cell lung cancer with liver and brain metastases; test: Case of a patient with small cell lung cancer with liver and brain metastases (CT follow-up); format: in vivo, human
Description: A person was pathologically diagnosed with small cell lung cancer of the left lower lobe in October 2013 after surgery. On Dec. […] The patient was admitted to the hospital for one cycle of liposomal paclitaxel+carboplatin+temozolomide chemotherapy and was discharged on December 28.
One cycle of TC regimen (paclitaxel+carboplatin) was started on Jan. 17, 2017, and the efficacy was evaluated as PD on Feb. 10, 2017. One cycle of IP regimen (irinotecan 120 mg d1, 80 mg d8; cisplatin 100 mg d1) was started on Feb. 16, 2017.
On May 12, 2017, oral administration of a capsule of the dihydrochloride of the compound of formula I at 12 mg was started once daily for 2 weeks and interrupted for 1 week, every 3-week as one treatment cycle until PD or intolerance.
The CT results were as follows: • After the first treatment cycle: target lesion: 63 mm; non-target lesions: non-CR/non-PD. • After the second treatment cycle: target lesion: 65 mm; non-target lesions: non-CR/non-PD. • After the fourth treatment cycle: target lesion: 66 mm; non-target lesions: non-CR/non-PD. • After the sixth treatment cycle: target lesion: 72 mm; non-target lesions: non-CR/non-PD. 1-20. (canceled)

[3] = CR or PR achieved with second-line chemotherapy: No
[4] = CR or PR achieved with second-line chemotherapy: Yes
[5] = all patients, FAS, capsule 12 mg oral once daily, 2 weeks on / 1 week off
[6] = brain metastasis upon enrollment: Yes
[7] = clinical stage before randomization: extended stage
[8] = after the fourth treatment cycle
[9] = after the second treatment cycle
[10] = after the sixth treatment cycle

**Q.** Which results are given for `COc1cc2c(Oc3ccc4[nH]c(C)cc4c3F)ccnc2cc1OCC1(N)CC1` [1-[[[4-(4-fluoro-2-methyl-1H-indol-5-yl)oxy-6-methoxyquinolin-7-yl]oxy]methyl]cyclopropylamine dihydrochloride]?
**A.** Overall survival P50 [1, 3]: 7.29 month; Progression-free survival P50 [1, 3]: 4.11 month; Overall survival P50 [1, 4]: 6.80 month; Progression-free survival P50 [1, 4]: 2.79 month; Overall survival of patients (OS), Median (95% CI) [1, 5]: 7.29(6.50, 10.51) month; Progression-free survival of patients (PFS), Median (95% CI) [1, 5]: 4.07(2.79, 4.24) month; Overall survival P50 ([1]; brain metastasis upon enrollment: No): 8.80 month; Overall survival P50 [1, 6]: 6.08 month; Progression-free survival P50 [1, 6]: 3.84 month; Overall survival P50 ([1]; chemotherapy line: second-line): 7.29 month; Progression-free survival P50 ([1]; chemotherapy line: second-line): 4.11 month; Overall survival P50 [1, 7]: 8.05 month; Progression-free survival P50 [1, 7]: 3.84 month; Progression-free survival P50 ([1]; clinical stage before randomization: limited stage): 4.83 month; Progression-free survival P50 ([1]; treated with docetaxel: No): 4.07 month; Progression-free survival P50 ([1]; treated with docetaxel: Yes): 2.83 month; Progression-free survival P50 ([1]; treated with irinotecan + platinum: No): 2.83 month; Progression-free survival P50 ([1]; treated with irinotecan + platinum: Yes): 4.07 month; Progression-free survival P50 ([1]; treated with paclitaxel: No): 4.11 month; Progression-free survival P50 ([1]; treated with paclitaxel: Yes): 2.86 month; target lesion (CT) ([2]; after the first treatment cycle, liver nodes, 64 mm before treatment, 12 mg once daily 2 weeks on / 1 week off): 63 mm; non-target lesions (CT) ([2]; after the first treatment cycle, multiple metastases in the brain): non-CR/non-PD; non-target lesions (CT) [2, 8]: non-CR/non-PD; target lesion (CT) [2, 8]: 66 mm; non-target lesions (CT) [2, 9]: non-CR/non-PD; target lesion (CT) [2, 9]: 65 mm; non-target lesions (CT) [2, 10]: non-CR/non-PD; target lesion (CT) [2, 10]: 72 mm; tolerability of the administration ([2]; capsule 12 mg oral once daily, 2 weeks on / 1 week off): well tolerated
